Results on 18 sequences are retold here after US20250154228A1, “HIGH-TRANSDERMAL-ABSORPTION PEPTIDE AND RECOMBINANT COLLAGEN CONSTRUCTED BY MEANS OF REPETITIONS OF PEPTIDE” (XI'AN GIANT BIOGENE TECHNOLOGY CO., LTD, priority 2022, published 2025).

Ends that are not written are not given here.

This data set in a line: 24 h transdermal penetration through mouse skin in vitro, single-chamber diffusion cell, BCA determination. The class given is in vitro ADME, Kunming mice. The settings on record: collagen peptides, 5 mg/ml in 0.9% NaCl, diffusion area 2.0 cm^2, 37.5° C., receiving solution after 24 h, BCA kit. The procedure: 10 Kunming mice of 20 to 22 g with half male and half […] were used in the experiment. After the mice were killed, the hairs on the abdomen were removed. Then the skin on the hair-removed area was peeled off, stripped of fat and grain, and rinsed repeatedly with distilled water. After being washed, the mouse skins were rinsed with normal saline, then treated with 10% glycerol, and stored at −20° C. for use (used up within 7 days).
Single-chamber diffusion cell: The effective diffusion area of the diffusion cell is 2.0 cm^2, the volume of the receiving cell is 14 ml, the length of the custom-made stirrer is 1.4 cm, and the receiving liquid is 0.9% NaCl solution.
The stored mouse skin was taken out, thawed, washed with normal saline, and sandwiched between the receiving chamber and the supplying chamber, with the medicated side facing the supplying chamber and the skin side facing the receiving chamber. The temperature of the water bath system was adjusted to 37.5° C., and the stirring speed was adjusted to 100 rpm/min. 0.9% NaCl solution pre-warmed at 37° C. was added to the receiving chamber and the air bubbles were exhausted. In order to reduce the interference, the inner surface of the mouse skin was firstly contacted with the receiving solution without medication and all the receiving solution was replaced. Then the 18 collagen peptides synthesized were prepared into 5 mg/ml solutions using 0.9% NaCl respectively, which were injected into the supplying chamber and firmly adhere to the mouse skin respectively. After 24 h, part of the receiving solution was absorbed with a syringe as the sample solution to determine the transdermal amount of collagen peptide.
The BCA kit method was used to determine the polypeptide content in the sample solution. […]

On to GAPGAPGSQGAPGLQGMPGER [compound 13], for which the “24 h penetration amount” value amounted to 4048.04 µg.

In the case of GDLGAPGPSGARGERGFPGER [compound 11], the “24 h penetration amount” value was 2994.13 µg.

On to GEQGVPGDLGAPGPSGARGER [compound 9], for which the “24 h penetration amount” value stood at 3341.78 µg.

In the case of GERGAAGLPGPKGDRGDAGPK [compound 14], the “24 h penetration amount” value is 3745.15 µg.

For GERGFPGERGVQGPPGPAGPR [compound 10], the “24 h penetration amount” value was determined as 2992.77 µg.

Turning to GERGFPGLPGPSGEPGKQGPS [compound 16], the “24 h penetration amount” value turned out to be 3034.99 µg.

As to GERGGPGSRGFPGADGVAGPK [compound 6], the “24 h penetration amount” value is 3253.23 µg.

Regarding GERGPPGPMGPPGLAGPPGES [compound 18], the “24 h penetration amount” value was 3308.22 µg.

Turning to GERGPPGPQGARGLPGTAGLP [compound 2], the “24 h penetration amount” value is 3697.14 µg.

Regarding GERGRPGAPGPAGARGNDGAT [compound 4], the “24 h penetration amount” value came out at 3124.48 µg.

With GERGVPGPPGAVGPAGKDGEA [compound 8], the “24 h penetration amount” value worked out at 3113.64 µg.

On to GERGVQGPPGPAGPRGANGAP [compound 12], for which the “24 h penetration amount” value was determined as 3103.23 µg.

Consider GKRGARGEPGPTGLPGPPGER [compound 5], for which the “24 h penetration amount” value amounted to 3023.05 µg.

For GLPGPSGEPGKQGPSGASGER [compound 17], the “24 h penetration amount” value worked out at 3498.56 µg.

Turning to GPPGKNGDDGEAGKPGRPGER [compound 1], the “24 h penetration amount” value turned out to be 3041.21 µg.

Take GPQGIAGQRGVVGLPGQRGER [compound 15]: the “24 h penetration amount” value stood at 3111.47 µg.

For GSPGENGAPGQMGPRGLPGER [compound 3], the “24 h penetration amount” value worked out at 3213.66 µg.

Consider GVMGFPGPKGAAGEPGKAGER [compound 7], for which the “24 h penetration amount” value came to 3389.09 µg.
